{"source": "patent US9604974B2", "about": "“Compounds as modulator of JAK-STAT pathway, methods and applications thereof” (UNIVERSITY OF MYSORE, priority 2015, dated 2017)", "test_system": "HepG2 cells", "test": "Cell cycle distribution by PI flow cytometry (sub-G1)", "type": "cell-based, human", "settings": "HepG2, 10 μMol/L CIMO", "method": "FIG. 1 depicts the accumulation of HepG2 cells in SubG1 phase caused by Compound 1 (CIMO). HepG2 cells (5×10^5/mL) are treated with 10 μMol/L CIMO for indicated time points, after which the cells are washed, fixed, stained with PI, and analyzed for DNA content by flow cytometry.\nIn late apoptosis, activation of endonucleases leads to fragmentation of genomic DNA into oligomers thereby contributing to a decrease in DNA content, which in turn leads to the buildup of cells in Sub-G1 phase. In order to evaluate the effect of Compound 1 on cell cycle distribution of HepG2 cells, flow cytometric analysis is performed. HepG2 cells are treated with CIMO at different time intervals up to 48 hours. Thereafter, cells are washed, fixed with 70% ethanol, and incubated for about 30 minutes about at 37° C. with 0.1% RNaseA in PBS. Cells are then washed again, resuspended, and stained in PBS containing 25 μg/ml propidium iodide (PI) for about 30 minutes at room temperature. Cell distribution across the cell cycle after PI staining is analyzed with a Beckman Coulter flow cytometer."}
{"molecule": "COc1ccc(C2CNC(c3cn(Cc4ccc(-c5ccccc5C#N)cc4)c4ccccc34)OC23CCCCC3)cc1", "note": "(stereo not shown) [Compound 1]", "values": [{"measurement": "sub-G1 cell population", "setting": "16 hours", "value": 18.8, "unit": "%"}, {"measurement": "sub-G1 cell population", "setting": "24 hours", "value": 38.7, "unit": "%"}, {"measurement": "sub-G1 cell population", "setting": "36 hours", "value": 71, "unit": "%"}, {"measurement": "sub-G1 cell population", "setting": "48 hours", "value": 92.1, "unit": "%"}]}
